Source: the NIST ThermoML archive (doi:10.1021/je200616t)
Numbers after ± are expanded uncertainties.

Assay: xn = mol fraction of the nth substance listed
Settings: 101 kPa, Liquid, MP522 conductivity instrument

CCCC[n+]1ccccc1.O=S(=O)([N-]S(=O)(=O)C(F)(F)F)C(F)(F)F [1-butylpyridinium bis[(trifluoromethyl)sulfonyl]imide] + CC1COC(=O)O1
electrical conductivity [S/m]
Settings | 283.15 K | 293.15 K | 298.15 K | 303.15 K | 313.15 K
x1 = 0.0282 | 0.356 ± 0.007 | 0.444 ± 0.009 | 0.489 ± 0.01 | 0.538 ± 0.011 | 0.635 ± 0.013
x1 = 0.0553 | 0.536 ± 0.011 | 0.672 ± 0.014 | 0.745 ± 0.015 | 0.821 ± 0.017 | 0.976 ± 0.02
x1 = 0.0934 | 0.66 ± 0.013 | 0.84 ± 0.017 | 0.933 ± 0.019 | 1.03 ± 0.021 | 1.24 ± 0.025
x1 = 0.1235 | 0.701 ± 0.014 | 0.896 ± 0.018 | 1 ± 0.02 | 1.12 ± 0.022 | 1.34 ± 0.027
x1 = 0.1897 | 0.686 ± 0.014 | 0.902 ± 0.018 | 1.02 ± 0.021 | 1.15 ± 0.023 | 1.4 ± 0.028
x1 = 0.269 | 0.607 ± 0.012 | 0.821 ± 0.017 | 0.938 ± 0.019 | 1.07 ± 0.022 | 1.34 ± 0.027
x1 = 0.3709 | 0.493 ± 0.01 | 0.692 ± 0.014 | 0.802 ± 0.016 | 0.927 ± 0.019 | 1.19 ± 0.024
x1 = 0.4666 | 0.4 ± 0.008 | 0.58 ± 0.012 | 0.681 ± 0.014 | 0.798 ± 0.016 | 1.04 ± 0.021
x1 = 0.5668 | 0.323 ± 0.007 | 0.483 ± 0.01 | 0.575 ± 0.012 | 0.679 ± 0.014 | 0.906 ± 0.018
x1 = 0.6944 | 0.248 ± 0.005 | 0.386 ± 0.008 | 0.467 ± 0.01 | 0.561 ± 0.011 | 0.764 ± 0.015
x1 = 0.7943 | 0.208 ± 0.004 | 0.33 ± 0.007 | 0.403 ± 0.008 | 0.489 ± 0.01 | 0.681 ± 0.014
x1 = 0.8591 | 0.188 ± 0.004 | 0.3 ± 0.006 | 0.367 ± 0.008 | 0.448 ± 0.009 | 0.628 ± 0.013
x1 = 0.9208 | 0.17 ± 0.004 | 0.275 ± 0.006 | 0.338 ± 0.007 | 0.415 ± 0.008 | 0.587 ± 0.012
x1 = 0.9715 | 0.157 ± 0.003 | 0.256 ± 0.005 | 0.317 ± 0.007 | 0.392 ± 0.008 | 0.556 ± 0.011
x1 = 1 | 0.15 ± 0.003 | 0.246 ± 0.005 | 0.307 ± 0.006 | 0.378 ± 0.008 | 0.54 ± 0.011

CCCCCC[n+]1ccccc1.O=S(=O)([N-]S(=O)(=O)C(F)(F)F)C(F)(F)F [1-hexylpyridinium bis(trifluromethylsulfonyl)imide] + CC1COC(=O)O1
electrical conductivity [S/m]
Settings | 283.15 K | 293.15 K | 298.15 K | 303.15 K | 313.15 K
x1 = 0.0128 | 0.184 ± 0.004 | 0.226 ± 0.005 | 0.249 ± 0.005 | 0.275 ± 0.006 | 0.324 ± 0.007
x1 = 0.0186 | 0.243 ± 0.005 | 0.303 ± 0.006 | 0.334 ± 0.007 | 0.367 ± 0.007 | 0.435 ± 0.009
x1 = 0.0321 | 0.354 ± 0.007 | 0.445 ± 0.009 | 0.489 ± 0.01 | 0.539 ± 0.011 | 0.641 ± 0.013
x1 = 0.0545 | 0.472 ± 0.01 | 0.597 ± 0.012 | 0.661 ± 0.013 | 0.731 ± 0.015 | 0.874 ± 0.018
x1 = 0.0693 | 0.519 ± 0.011 | 0.66 ± 0.013 | 0.733 ± 0.015 | 0.814 ± 0.016 | 0.976 ± 0.02
x1 = 0.1001 | 0.567 ± 0.011 | 0.729 ± 0.015 | 0.815 ± 0.016 | 0.911 ± 0.018 | 1.1 ± 0.022
x1 = 0.1332 | 0.574 ± 0.012 | 0.749 ± 0.015 | 0.841 ± 0.017 | 0.944 ± 0.019 | 1.16 ± 0.023
x1 = 0.1806 | 0.539 ± 0.011 | 0.72 ± 0.015 | 0.817 ± 0.016 | 0.925 ± 0.019 | 1.15 ± 0.023
x1 = 0.2489 | 0.463 ± 0.009 | 0.636 ± 0.013 | 0.73 ± 0.015 | 0.838 ± 0.017 | 1.06 ± 0.021
x1 = 0.334 | 0.366 ± 0.007 | 0.522 ± 0.011 | 0.609 ± 0.012 | 0.708 ± 0.014 | 0.918 ± 0.018
x1 = 0.4547 | 0.256 ± 0.005 | 0.384 ± 0.008 | 0.458 ± 0.009 | 0.542 ± 0.011 | 0.725 ± 0.015
x1 = 0.5693 | 0.19 ± 0.004 | 0.294 ± 0.006 | 0.358 ± 0.007 | 0.43 ± 0.009 | 0.589 ± 0.012
x1 = 0.7043 | 0.136 ± 0.003 | 0.218 ± 0.004 | 0.27 ± 0.006 | 0.332 ± 0.007 | 0.47 ± 0.01
x1 = 0.8506 | 0.0986 ± 0.0021 | 0.167 ± 0.003 | 0.208 ± 0.004 | 0.258 ± 0.005 | 0.377 ± 0.008
x1 = 0.9425 | 0.0826 ± 0.0018 | 0.141 ± 0.003 | 0.179 ± 0.004 | 0.223 ± 0.005 | 0.332 ± 0.007
x1 = 1 | 0.0737 ± 0.0016 | 0.129 ± 0.003 | 0.163 ± 0.003 | 0.205 ± 0.004 | 0.306 ± 0.006

CCCC[n+]1ccccc1.O=S(=O)([N-]S(=O)(=O)C(F)(F)F)C(F)(F)F [1-butylpyridinium bis[(trifluoromethyl)sulfonyl]imide] + CC#N
electrical conductivity [S/m]
Settings | 283.15 K | 293.15 K | 298.15 K | 303.15 K | 313.15 K
x1 = 0.0379 | 3.17 ± 0.06 | 3.52 ± 0.07 | 3.68 ± 0.07 | 3.85 ± 0.08 | 4.19 ± 0.08
x1 = 0.0652 | 3.38 ± 0.07 | 3.77 ± 0.08 | 3.96 ± 0.08 | 4.16 ± 0.08 | 4.55 ± 0.09
x1 = 0.1114 | 3.28 ± 0.07 | 3.72 ± 0.07 | 3.94 ± 0.08 | 4.18 ± 0.08 | 4.64 ± 0.09
x1 = 0.1566 | 2.84 ± 0.06 | 3.3 ± 0.07 | 3.54 ± 0.07 | 3.78 ± 0.08 | 4.26 ± 0.09
x1 = 0.217 | 2.22 ± 0.04 | 2.67 ± 0.05 | 2.89 ± 0.06 | 3.13 ± 0.06 | 3.6 ± 0.07
x1 = 0.3137 | 1.46 ± 0.029 | 1.83 ± 0.037 | 2.02 ± 0.04 | 2.23 ± 0.05 | 2.66 ± 0.05
x1 = 0.4004 | 1.01 ± 0.02 | 1.31 ± 0.026 | 1.48 ± 0.03 | 1.66 ± 0.033 | 2.04 ± 0.04
x1 = 0.513 | 0.653 ± 0.013 | 0.897 ± 0.018 | 1.03 ± 0.021 | 1.18 ± 0.024 | 1.5 ± 0.03
x1 = 0.6732 | 0.371 ± 0.008 | 0.546 ± 0.011 | 0.647 ± 0.013 | 0.762 ± 0.015 | 1.01 ± 0.02
x1 = 0.7658 | 0.282 ± 0.006 | 0.427 ± 0.009 | 0.512 ± 0.01 | 0.611 ± 0.012 | 0.83 ± 0.017
x1 = 0.8473 | 0.223 ± 0.005 | 0.348 ± 0.007 | 0.424 ± 0.009 | 0.511 ± 0.01 | 0.708 ± 0.014
x1 = 0.8897 | 0.2 ± 0.004 | 0.316 ± 0.006 | 0.388 ± 0.008 | 0.47 ± 0.01 | 0.657 ± 0.013
x1 = 0.9649 | 0.167 ± 0.004 | 0.261 ± 0.005 | 0.33 ± 0.007 | 0.405 ± 0.008 | 0.576 ± 0.012
x1 = 1 | 0.151 ± 0.003 | 0.246 ± 0.005 | 0.307 ± 0.006 | 0.377 ± 0.008 | 0.542 ± 0.011

CCCCCC[n+]1ccccc1.O=S(=O)([N-]S(=O)(=O)C(F)(F)F)C(F)(F)F [1-hexylpyridinium bis(trifluromethylsulfonyl)imide] + CC#N
electrical conductivity [S/m]
Settings | 283.15 K | 293.15 K | 298.15 K | 303.15 K | 313.15 K
x1 = 0.0432 | 2.75 ± 0.06 | 3.05 ± 0.06 | 3.2 ± 0.06 | 3.35 ± 0.07 | 3.65 ± 0.07
x1 = 0.0703 | 2.91 ± 0.06 | 3.28 ± 0.07 | 3.46 ± 0.07 | 3.65 ± 0.07 | 4.01 ± 0.08
x1 = 0.0883 | 2.83 ± 0.06 | 3.22 ± 0.06 | 3.42 ± 0.07 | 3.61 ± 0.07 | 4 ± 0.08
x1 = 0.1355 | 2.37 ± 0.05 | 2.77 ± 0.06 | 2.98 ± 0.06 | 3.19 ± 0.06 | 3.61 ± 0.07
x1 = 0.2056 | 1.64 ± 0.033 | 2 ± 0.04 | 2.19 ± 0.04 | 2.39 ± 0.05 | 2.81 ± 0.06
x1 = 0.2534 | 1.27 ± 0.026 | 1.59 ± 0.032 | 1.77 ± 0.036 | 2 ± 0.04 | 2.38 ± 0.05
x1 = 0.332 | 0.886 ± 0.018 | 1.16 ± 0.023 | 1.3 ± 0.026 | 1.46 ± 0.029 | 1.79 ± 0.036
x1 = 0.4498 | 0.503 ± 0.01 | 0.702 ± 0.014 | 0.811 ± 0.016 | 0.935 ± 0.019 | 1.2 ± 0.024
x1 = 0.5297 | 0.351 ± 0.007 | 0.51 ± 0.01 | 0.599 ± 0.012 | 0.702 ± 0.014 | 0.924 ± 0.019
x1 = 0.6276 | 0.239 ± 0.005 | 0.362 ± 0.007 | 0.437 ± 0.009 | 0.518 ± 0.011 | 0.704 ± 0.014
x1 = 0.8155 | 0.128 ± 0.003 | 0.207 ± 0.004 | 0.256 ± 0.005 | 0.316 ± 0.006 | 0.452 ± 0.009
x1 = 0.9205 | 0.0936 ± 0.002 | 0.157 ± 0.003 | 0.197 ± 0.004 | 0.245 ± 0.005 | 0.358 ± 0.007
x1 = 1 | 0.0737 ± 0.0016 | 0.128 ± 0.003 | 0.163 ± 0.003 | 0.205 ± 0.004 | 0.306 ± 0.006
